From US20250084097A1, “MACROCYCLIC AMIDE COMPOUNDS AND APPLICATION THEREOF” (Medshine Discovery Inc., priority 2021, published 2025)
Read-outs that look alike come from different tables or passages of the source.

Assays:
[1] = tested on: Ba/F3-FL-EGFR(L858R/T790M/C797S) phosphorylation; assay: Inhibition of EGFR phosphorylation in cells, Western Blot; format: cell-based; conditions: p-EGFR, 4 h incubation, read-out: Cell half-maximal inhibition concentration IC50 Ba/F3-FL-EGFR(L858R/T790M/C797S)
Excerpt: (§1) Autophosphorylation of EGFR can activate its intracellular kinase pathway. In this assay, EGFR phosphorylation was quantified in order to detect the inhibitory effect of compounds on Ba/F3-FL-EGFR(L858R/T790M/C797S) and Ba/F3-FL-EGFR (del19-E746-A750/T790M/C797S) phosphorylation.
(§2) The cells in the logarithmic growth phase were taken and counted with a cell counter. The cell viability rate was required to be >90%. Cells were inoculated into a sterile 6-well plate with 2×10^6 cells per well, replenished with 1640 complete medium to 1998 μL, and the 6-well plate was incubated in a constant temperature incubator at 37° C. and 5% CO2.
(§3) The 6-well plate was taken out, and the cells were normal under microscope. In an ultra-clean bench, 2 μL of each of the prepared gradient diluted 1000× stock solution was added to the 6-well plate inoculated with cells, and the 6-well plate was gently shaken to distribute the compounds evenly.
(§4) The 6-well plate was incubated statically in a constant temperature incubator at 37° C., 5% CO2 for 4 h;
(§5) After the cells were cultured statically for 4 hours, the culture medium was collected, and centrifuged at 8000 rpm for 3 minutes. The cells were collected in a 1.5 mL EP tube. The supernatant was discarded, and the total protein was extracted;
(§6) Cells from each group were collected into 1.5 ml EP tubes and a certain volume of Lysis Buffer (RIPA:protease/phosphatase inhibitor=100:1) was added (˜66 μL per 2×10^6 cells, depending on the cell amount). After adding Lysis Buffer, the EP tubes were placed on ice quickly and vortexed using a vortexer to fully lyse the cells. Be careful not to vortex for too long, and quickly place the sample tube on ice to lysis, shaking every 10 min for three times. At the end of the lysis time, the EP tubes were centrifuged at 12000 rpm for 10 min in a pre-cooled centrifuge at 4° C. After centrifugation, the supernatant was transferred to new 1.5 ml EP tubes which were labeled.
(§7) Using the BCA Protein Concentration Assay Kit, protein quantification of the sample lysis supernatant was performed according to the kit instructions. After the protein concentration was determined, the lysis supernatant with the lowest concentration was used as the reference, and the rest of the lysis supernatants were diluted to that concentration using Lysis Buffer in a volume calculated according to the BCA standard curve. To the diluted lysis supernatant, the corresponding volume of 5× loading Buffer was added. The diluted solution was heated in a metal bath at 95° C. for 10 min, then placed on ice to be cooled, and stored in a refrigerator at −20° C.
(§8) The glass plates used for making glue were cleaned, and two glass plates were aligned the bottoms, put into the bracket, and fixed with clips. The separation gel according to the 10% separation gel formula was prepared, mixed well and then added to the glass plate. The addition was stopped until the separation gel reached about ¾ of the glass plate and the glue was pressed with 75% ethanol. After 90 minutes, the separation gel was solidified. The 75% ethanol was poured out. Filter paper was used to absorb the remaining ethanol solution on the glass plate. A 5% stacking gel was prepared, mixed evenly and added to the glass plate. Then a spiking comb was inserted. After 60 minutes, the glue was made.
(§9) The gel plate was fixed in an electrophoresis tank, and the inner tank was filled with 1× electrophoresis solution, while in the outer tank the electrophoresis solution was over the metal wire. The spiking comb was removed, the protein samples of Ba/F3-FL-EGFR (L858R/T790M/C797S) and Ba/F3-FL-EGFR (del19-E746-A750/T790M/C797S) cells were sampled 25 μg, and Protein Ladder was then added. Turning on the power supply, electrophoresis with a constant voltage of 70 V lasted for 30 min, electrophoresis was continued at constant voltage 86 V for 1 h 20 min until the bromophenol blue indicator band reached the bottom and electrophoresis was stopped. […]

[2] = tested on: Ba/F3-FL-EGFR (del19-E746-A750/T790M/C797S) phosphorylation; assay: as above; format: cell-based; conditions: p-EGFR, 4 h incubation, read-out: Cell half-maximal inhibition concentration IC50 Ba/F3-FL-EGFR (del19-E746-A750/T790M/C797S)
Excerpt: as §1, §2, §3, §4, §5, §6, §7, §8, §9

[3] = Pharmacokinetic assay of compounds in mice; format: in vivo, male ICR mice; conditions: for Vd / AUC(0-t) / half-life / C0 / bioavailability / Cmax / Tmax: male, ICR, mouse, plasma; for Vd: read-out: Apparent volume of distribution Vd; for AUC(0-t): read-out: Area under the curve AUC0-last; for half-life: read-out: Half-life T1/2 (converted); for C0: read-out: Starting concentration C0; for bioavailability: PO 10 mg/kg vs IV 3 mg/kg, read-out: Bioavailability F %; for Cmax: read-out: Peak concentration Cmax; for Tmax: read-out: Time to peak Tmax
Excerpt: Assay purpose: 7-9-week-old male ICR mice were used as test animals. LC/MS/MS method was used to determine the drug concentration of the compound in the plasma at different times after a single intravenous injection (IV) and oral administration (PO) of the compound, to study the pharmacokinetic behavior of the compounds of the present disclosure in mice, and to evaluate their pharmacokinetic characteristics.
Formulation of drug: The compounds were formulated as solutions in the respective solvents for administration in IV (intravenous injection) and PO (oral administration) groups. The dose of each compound was 3 mg/kg for IV and 10 mg/kg for PO, and the vehicle was 10% DMSO+10% solutol+80% (10% HP-β-CD).

Row | Compound | IC50 [1] [nM] | IC50 [2] [nM] | Apparent clearance Cl ([3]; IV 3 mg/kg) [mL/min/kg] | Vd ([3]; IV 3 mg/kg) [L/kg] | AUC(0-t) ([3]; IV 3 mg/kg) [µM·h] | half-life ([3]; IV 3 mg/kg) [h] | C0 ([3]; IV 3 mg/kg) [µM] | bioavailability [3] [%] | AUC(0-t) ([3]; PO 10 mg/kg) [µM·h] | Cmax ([3]; PO 10 mg/kg) [µM] | Tmax ([3]; PO 10 mg/kg) [h]
1 | Cc1cc2cc(n1)-c1cnn(C)c1OC[C@H]1CC[C@H](C1)CN1/C(=N/C2=O)Nc2ccc(N=S(C)(C)=O)cc21 (single isomer, unassigned) [WX-027A] | 2.1 | 1.9 | 14.2 | 1 | 7.7 | 1.1 | 6.85 | 64 | 15.7 | 5.91 | 0.8
2 | Cc1cc2cc(n1)-c1cnn(C)c1OCCC[C@@H](C)CN1/C(=N/C2=O)Nc2ccc(N=S(C)(C)=O)cc21 [WX-006] | 3.4 | 0.6 | 14.6 | 1.9 | 6.54 | 3.6 | 8.14 | 83 | 18.1 | 3.59 | 1.5
3 | Cc1cc2cc(n1)-c1cnn(C)c1OCCC[C@@H](C)CN1/C(=N/C2=O)Nc2ccc(N=S3(=O)CCCC3)cc21 [WX-010 (trifluoroacetate)] | 2.3 | 0.8 | 5.7 | 1 | 16.1 | 2.8 | 8.14 | 56 | 30.1 | 4.49 | 1
4 | Cc1cc2cc(n1)-c1cnn(C)c1OCCC[C@@H](C)CN1/C(=N/C2=O)Nc2ccc(N=S3(=O)CCOCC3)cc21 [WX-013] | 2.9 | 1.3 | 4.7 | 1 | 18.9 | 3.3 | 12.1 | 34 | 21.5 | 3.94 | 1
5 | Cc1cc2cc(n1)-c1cnn(C)c1OCCC[C@@H](C)CN1/C(=N/C2=O)Nc2ccc(N=S(C)(C)=O)c(Cl)c21 [WX-019] | – | – | 8.6 | 1.6 | 10.6 | 2.5 | 5.73 | 65 | 23.2 | 3.92 | 1
